# According to patent US9101600B2, “Compounds as RORγt modulators and uses thereof” (New York University, priority 2010, dated 2015):
# pIC50: −log10 of the molar value.
# Biological target: RORγ/γt (Mus musculus, UniProt P51450, T352K)
# Assay: RORγ/γt-luc reporter S2 cell assay / HTS (firefly luciferase)
# Conditions: for Curve Class: RORγ/γt HTS concentration response curve class; for 80% Inhib. @: RORγ/γt reporter, S2 cells, concentration for 80% inhibition
# Excerpt: The Drosophila S2 cell line was originally purchased from Invitrogen and was maintained in Schneider's medium supplemented with 10% heat-inactivated bovine fetal calf serum and antibiotics (Invitrogen). Gal4 DNA binding domain (G4 DBD) corresponding to amino acids 1 through 147 of Gal4 protein was PCR amplified to make a fusion construct with mouse RORγt (amino acids 79 to the carboxyl terminal end) lacking its DNA binding domain. The resulting chimeric gene was subcloned into the copper inducible pMT/V5-His A vector (available from Invitrogen). In a similar manner, Gal4 fusion constructs were prepared with mouse RORα (amino acids 142 to end) or Drosophila DHR3 (amino acids 120 to end).
# In order to generate stable cell lines, cells were co-transfected with pMT-G4 DBD-RORγt, pMT-G4 DBD-RORα, pMT-G4 DBD-DHR3, or pMT-G4DBDVP16 and pHygro plasmids (Invitrogen) and screened for resistant colonies in the presence of hygromycin (0.3 mg/mL). More than 150 independent RORγ stable clones with luciferase reporters (pMt-RORγ_luc) were tested for their suitability for the high-throughput screening (HTS) based on the following criteria: high signal-to background ratio in 384- and 1,536-well plates, their high induction rate upon the addition of copper, and RORγ/γt specificity probed by the dsRORγ- or RORγ/γt antagonist-mediated suppression. Positive clones were further transfected with pUAST-firefly luciferase, polIII-Renilla luciferase, and pCoPuro (Iwaki, Figuera et al. 2003) (“Rapid selection of Drosophila S2 cells with the puromycin resistance gene.” Biotechniques 35(3): 482-4, 486.) and selected with puromycin (2.5 ug/ml). […] Using similar methods, stable clones with genomic integration of the luciferase reporters and other reporters were generated such as pMT-RORα_luc, pMT-DHR3_luc, or pMT-VP16_luc.
# 600 G4 DBD-RORγ/γt-luc reporter (#25) or G4 DBD-VP16-luc reporter cells were distributed into each well of 1,536-well white bottom plates in 4 μl S2 cell culture volume containing hygromicin (300 μg/ml) and puromycin (2 μg/ml). Small compounds in seven different concentrations range from 46 μM to 1.7 nM were pin-transferred (23 nl) by a robot (Inglese et al., 2006, Proc. Natl. Acad. Sci. 103:11473-8). […] After 20-hour incubation at ambient temperature, 1.5 μl firefly luciferase detection mix was added and the luciferase activities were measured in 10 min. ViewLux luminometers were used for measuring luciferase signal.
# Since their cognate DNA binding sites were not well characterized, the DNA binding domains (DBD) of RORγ/γt, RORα(mouse homolog for PORγ), and DHR3 (Drosophila orthologue for ROR family proteins) were replaced with the heterologous yeast GAL4 DBD. The transcriptionally active domain of general transcriptional activator VP16 was also fused with GAL4 DBD.
# Sequence of RORγ/γt (P51450 with tags, fused parts or gaps T352K): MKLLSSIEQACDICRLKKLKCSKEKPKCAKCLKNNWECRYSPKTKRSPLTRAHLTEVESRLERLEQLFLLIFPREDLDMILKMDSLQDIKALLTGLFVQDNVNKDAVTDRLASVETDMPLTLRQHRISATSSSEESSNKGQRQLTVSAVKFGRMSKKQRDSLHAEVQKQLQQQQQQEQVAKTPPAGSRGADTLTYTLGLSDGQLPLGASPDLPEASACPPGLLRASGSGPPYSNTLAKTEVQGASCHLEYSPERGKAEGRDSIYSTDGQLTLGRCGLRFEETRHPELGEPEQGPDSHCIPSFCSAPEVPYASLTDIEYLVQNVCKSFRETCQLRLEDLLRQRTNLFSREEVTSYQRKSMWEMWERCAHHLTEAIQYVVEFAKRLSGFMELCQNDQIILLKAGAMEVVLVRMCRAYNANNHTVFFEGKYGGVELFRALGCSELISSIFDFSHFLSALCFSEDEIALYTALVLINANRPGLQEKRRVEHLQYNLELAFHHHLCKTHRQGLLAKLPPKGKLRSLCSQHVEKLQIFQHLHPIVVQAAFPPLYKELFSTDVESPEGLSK
compound,measurement,value
CCOC(=O)[C@@H]1[C@H]2COc3ccccc3[C@H]2N2C(=O)N(c3ccc(C)cc3)C(=O)[C@]12C [MLS001066453-01],AC50,0.282 µM
same,Curve Class,4
CCOC(=O)[C@@H]1[C@H]2COc3ccc(Br)cc3[C@@H]2N2C(=O)N(c3cccc(F)c3)C(=O)[C@@]12C [MLS001066026-01],AC50,17.8 µM
same,Curve Class,−2.2
CCOC(=O)[C@H]1[C@H]2COc3cc(OC)ccc3[C@@H]2N2C(=O)N(c3ccc(Cl)cc3)C(=O)[C@@]12C [MLS001066308-01],Curve Class,4
CCOC(=O)[C@@H]1[C@H]2COc3cc(OC)ccc3[C@@H]2N2C(=O)N(c3ccc(C(F)(F)F)cc3)C(=O)[C@@]12C [MLS001066319-01],AC50,15.8 µM
same,Curve Class,−3
CCOC(=O)[C@@H]1[C@H]2COc3ccc(Br)cc3[C@H]2N2C(=O)N(c3ccc(F)cc3)C(=O)[C@@]12C [MLS001066263-01],AC50,0.0045 µM
same,Curve Class,4
CCOC(=O)[C@@H]1[C@H]2COc3ccc(Br)cc3[C@H]2N2C(=O)N(c3cccc(Cl)c3)C(=O)[C@]12C [MLS001066096-01],AC50,8.91 µM
same,Curve Class,−2.2
COc1ccccc1CNC(=O)[C@@H](NC(=O)C1CCN(C(=O)[C@@H]2CCCN2C(=O)OC(C)(C)C)CC1)C(C)C [MLS001157801-02],pIC50,4.83
same,80% Inhib. @,45.85 µM
CCOC(=O)[C@@H]1[C@H]2COc3ccccc3[C@H]2N2C(=O)N(c3ccc(C(F)(F)F)cc3)C(=O)[C@]12C [MLS001066275-01],AC50,5.01 µM
same,Curve Class,4
CCOC(=O)[C@@H]1[C@H]2COc3cc(OC)ccc3[C@@H]2N2C(=O)N(c3cccc(Cl)c3)C(=O)[C@@]12C [MLS001066281-01],AC50,11.2 µM
same,Curve Class,−2.2
CCOC(=O)[C@@H]1[C@H]2COc3cc(OC)ccc3[C@@H]2N2C(=O)N(c3ccc(Cl)cc3)C(=O)[C@@]12C [MLS001066268-01],AC50,8.91 µM
same,Curve Class,−2.1
CCOC(=O)[C@@H]1[C@H]2COc3ccc(Br)cc3[C@@H]2N2C(=O)N(c3ccc(Br)cc3)C(=O)[C@]12C [MLS001066244-01],AC50,0.0056 µM
same,Curve Class,4
CCOC(=O)[C@@H]1[C@H]2COc3ccccc3[C@@H]2N2C(=O)N(c3cccc(Cl)c3)C(=O)[C@@]12C [MLS001066276-01],AC50,17.8 µM
same,Curve Class,−3
CCOC(=O)[C@@H]1[C@H]2COc3cc(OC)ccc3[C@@H]2N2C(=O)N(c3cccc(C)c3)C(=O)[C@@]12C [MLS001066270-01],AC50,12.6 µM
same,Curve Class,−3
CCOC(=O)[C@@H]1[C@H]2COc3cc(OC)ccc3[C@@H]2N2C(=O)N(c3ccc(OC)cc3)C(=O)[C@]12C [MLS001066279-01],Curve Class,4
CCOC(=O)[C@@H]1[C@H]2COc3ccc(Br)cc3[C@@H]2N2C(=O)N(c3ccc(C(F)(F)F)cc3)C(=O)[C@@]12C [MLS001066025-01],Curve Class,4
CCOC(=O)[C@@H]1[C@H]2COc3ccc(Br)cc3[C@H]2N2C(=O)N(c3ccc(Cl)cc3)C(=O)[C@@]12C [MLS001066313-01],AC50,0.0447 µM
same,Curve Class,4
CCOC(=O)[C@@H]1[C@H]2COc3cc(OC)ccc3[C@@H]2N2C(=O)N(c3ccc(F)cc3)C(=O)[C@]12C [MLS001066228-01],AC50,0.141 µM
same,Curve Class,4
CCOC(=O)[C@H]1[C@H]2COc3cc(OC)ccc3[C@@H]2N2C(=O)N(c3ccc(Br)cc3)C(=O)[C@@]12C [MLS001066259-01],Curve Class,4
CCOC(=O)[C@@H]1[C@H]2COc3ccccc3[C@H]2N2C(=O)N(c3ccccc3)C(=O)[C@]12C [MLS001066502-01],AC50,0.794 µM
same,Curve Class,4
CCOC(=O)[C@@H]1[C@H]2COc3ccc(Br)cc3[C@H]2N2C(=O)N(c3ccc(C)cc3)C(=O)[C@]12C [MLS001066302-01],Curve Class,4
CCOC(=O)[C@@H]1[C@H]2COc3cc(OC)ccc3[C@H]2N2C(=O)N(c3cccc(Cl)c3)C(=O)[C@@]12C [MLS001066311-01],AC50,10 µM
same,Curve Class,4
CCOC(=O)[C@@H]1[C@H]2COc3cc(OC)ccc3[C@@H]2N2C(=O)N(c3ccc(Br)cc3)C(=O)[C@@]12C [MLS001066318-01],AC50,7.94 µM
same,Curve Class,−2.1
CCOC(=O)[C@@H]1[C@H]2COc3ccc(Br)cc3[C@@H]2N2C(=O)N(c3ccc(C)cc3)C(=O)[C@]12C [MLS0010660292-01],AC50,11.2 µM
same,Curve Class,4
CCOC(=O)[C@@H]1[C@H]2COc3ccc(Br)cc3[C@@H]2N2C(=O)N(c3ccccc3)C(=O)[C@]12C [MLS001066242-01],AC50,0.0224 µM
same,Curve Class,4
CCOC(=O)[C@@H]1[C@H]2COc3cc(OC)ccc3[C@@H]2N2C(=O)N(c3cccc(F)c3)C(=O)[C@]12C [MLS001066241-01],AC50,3.98 µM
same,Curve Class,4
CCOC(=O)[C@@H]1[C@H]2COc3ccc(Br)cc3[C@H]2N2C(=O)N(c3cccc(F)c3)C(=O)[C@]12C [MLS001066046-01],AC50,0.0126 µM
same,Curve Class,4
CCOC(=O)[C@@H]1[C@H]2COc3ccccc3[C@H]2N2C(=O)N(c3cccc(Cl)c3)C(=O)[C@@]12C [MLS001066306-01],AC50,7.08 µM
same,Curve Class,4
CCOC(=O)[C@@H]1[C@H]2COc3ccccc3[C@@H]2N2C(=O)N(c3cccc(C)c3)C(=O)[C@]12C [MLS001066305-01],AC50,0.891 µM
same,Curve Class,4
CCOC(=O)[C@@H]1[C@H]2COc3ccc(Br)cc3[C@@H]2N2C(=O)N(c3ccc(OC)cc3)C(=O)[C@]12C [MLS001066294-01],AC50,0.112 µM
same,Curve Class,4
CCOC(=O)[C@@H]1[C@H]2COc3cc(OC)ccc3[C@@H]2N2C(=O)N(c3cccc(F)c3)C(=O)[C@@]12C [MLS001066231-01],AC50,10 µM
same,Curve Class,−2.1
CCOC(=O)[C@@H]1[C@H]2COc3ccccc3[C@@H]2N2C(=O)N(c3ccc(Cl)cc3)C(=O)[C@@]12C [MLS001066523-01],AC50,15.8 µM
same,Curve Class,−3
CCOC(=O)[C@@H]1[C@H]2COc3ccccc3[C@@H]2N2C(=O)N(c3ccccc3)C(=O)[C@@]12C [MLS001066482-01],AC50,12.6 µM
same,Curve Class,−2.1
CCOC(=O)[C@@H]1[C@H]2COc3cc(OC)ccc3[C@@H]2N2C(=O)N(c3ccc(C(F)(F)F)cc3)C(=O)[C@]12C [MLS001066230-01],Curve Class,4
CCOC(=O)[C@@H]1[C@H]2COc3ccc(Br)cc3[C@H]2N2C(=O)N(c3ccc(F)cc3)C(=O)[C@]12C [MLS001066253-01],Curve Class,4
CCOC(=O)[C@@H]1[C@H]2COc3ccccc3[C@@H]2N2C(=O)N(c3ccc(F)cc3)C(=O)[C@@]12C [MLS001066483-01],AC50,12.6 µM
same,Curve Class,−2.2
CCOC(=O)[C@@H]1[C@H]2COc3ccccc3[C@@H]2N2C(=O)N(c3ccccc3)C(=O)[C@]12C [MLS001066492-01],AC50,0.141 µM
same,Curve Class,4
CCOC(=O)[C@@H]1[C@H]2COc3ccccc3[C@H]2N2C(=O)N(c3ccc(Cl)cc3)C(=O)[C@@]12C [MLS001066454-01],AC50,11.2 µM
same,Curve Class,4
CCOC(=O)[C@@H]1[C@H]2COc3cc(OC)ccc3[C@H]2N2C(=O)N(c3ccc(C)cc3)C(=O)[C@@]12C [MLS001066297-01],AC50,0.891 µM
same,Curve Class,4
CCOC(=O)[C@@H]1[C@H]2COc3ccc(Br)cc3[C@@H]2N2C(=O)N(c3ccc(F)cc3)C(=O)[C@]12C [MLS001066243-01],AC50,0.891 µM
same,Curve Class,4
CCOC(=O)[C@@H]1[C@H]2COc3ccccc3[C@H]2N2C(=O)N(c3ccc(OC)cc3)C(=O)[C@]12C [MLS001066225-01],Curve Class,4
CCOC(=O)[C@@H]1[C@H]2COc3ccccc3[C@@H]2N2C(=O)N(c3ccc(Cl)cc3)C(=O)[C@]12C [MLS001066434-01],AC50,3.16 µM
same,Curve Class,4
CCOC(=O)[C@@H]1[C@H]2COc3ccccc3[C@H]2N2C(=O)N(c3ccc(F)cc3)C(=O)[C@]12C [MLS001066503-01],AC50,2.51 µM
same,Curve Class,4
CCOC(=O)[C@@H]1[C@H]2COc3ccccc3[C@H]2N2C(=O)N(c3cccc(F)c3)C(=O)[C@]12C [MLS001066256-01],Curve Class,4
CCOC(=O)[C@@H]1[C@H]2COc3ccccc3[C@@H]2N2C(=O)N(c3cccc(Cl)c3)C(=O)[C@]12C [MLS001066286-01],Curve Class,4
CCOC(=O)[C@H]1[C@H]2COc3cc(OC)ccc3[C@@H]2N2C(=O)N(c3cccc(Cl)c3)C(=O)[C@@]12C [MLS001066321-01],AC50,6.31 µM
same,Curve Class,4
CCOC(=O)[C@@H]1[C@H]2COc3ccccc3[C@@H]2N2C(=O)N(c3ccc(C)cc3)C(=O)[C@]12C [MLS001066443-01],AC50,3.98 µM
same,Curve Class,4
CCOC(=O)[C@@H]1[C@H]2COc3ccc(Br)cc3[C@H]2N2C(=O)N(c3ccc(Br)cc3)C(=O)[C@]12C [MLS001066254-01],AC50,1.12 µM
same,Curve Class,4
CCOC(=O)[C@@H]1[C@H]2COc3ccc(Br)cc3[C@@H]2N2C(=O)N(c3ccc(C(F)(F)F)cc3)C(=O)[C@]12C [MLS001066035-01],AC50,3.98 µM
same,Curve Class,4
CCOC(=O)[C@@H]1[C@H]2COc3cc(OC)ccc3[C@@H]2N2C(=O)N(c3cccc(Cl)c3)C(=O)[C@]12C [MLS001066291-01],AC50,0.112 µM
same,Curve Class,4
CCOC(=O)[C@@H]1[C@H]2COc3ccccc3[C@H]2N2C(=O)N(c3ccc(Cl)cc3)C(=O)[C@]12C [MLS001066444-01],AC50,0.0071 µM
same,Curve Class,4
CC(C)[C@@H](NC(=O)C1CCN(C(=O)[C@@H]2CCCN2C(=O)OC(C)(C)C)CC1)C(=O)NCc1ccc(F)cc1 [MLS001141034-02],pIC50,4.41
same,80% Inhib. @,161.2 µM
CCOC(=O)[C@@H]1[C@H]2COc3cc(OC)ccc3[C@H]2N2C(=O)N(c3ccc(C(F)(F)F)cc3)C(=O)[C@@]12C [MLS001066250-01],AC50,4.47 µM
same,Curve Class,4
CCOC(=O)[C@@H]1[C@H]2COc3cc(OC)ccc3[C@H]2N2C(=O)N(c3ccc(F)cc3)C(=O)[C@]12C [MLS001066238-01],Curve Class,4
